Patent US11780893B2, “Kv1.3 blockers” (Zealand Pharma A/S, priority 2019, dated 2023)
Like-named read-outs stand apart in the source and are kept apart here. Bridge positions count the residues as written; N and C are the ends. Square brackets hold non-standard residues; d marks the D form. Peptide text beside a SMILES is read from it. Nle = CCCC[C@H](N)C(=O)O

Tests used:
Kv1.3 = biological target: T1, Kv1.3 (Homo sapiens, UniProt P22001); assay: cell-based; details: CHO cells, whole-cell patch clamp; read-out: Potency IC50 (nM) Kv1.3
T1 construct: expressed in transfected cells; host or cells: Chinese Hamster Ovary (CHO)

Kv1.1 = biological target: T2, Kv1.1 (Homo sapiens, UniProt Q09470); assay: cell-based; details: for IC50: CHO cells, whole-cell patch clamp, read-out: Potency IC50 (nM) Kv1.1; for Selectivity Kv1.1/Kv1.3: ratio IC50[Kv1.1]/IC50[Kv1.3]
T2 construct: expressed in transfected cells; host or cells: Chinese Hamster Ovary (CHO)

Kv1.6 = biological target: T3, Kv1.6 (Homo sapiens, UniProt P17658); assay: cell-based; details: for IC50: CHO cells, whole-cell patch clamp, read-out: Potency IC50 (nM) Kv1.6; for Selectivity Kv1.6/Kv1.3: ratio IC50[Kv1.6]/IC50[Kv1.3]
T3 construct: expressed in transfected cells; host or cells: Chinese Hamster Ovary (CHO)

Kv1.2 = biological target: T4, Kv1.2 (Homo sapiens, UniProt P16389); assay: cell-based; details: CHO cells, whole-cell patch clamp; read-out: Potency IC50 (nM) Kv1.2
T4 construct: expressed in transfected cells; host or cells: Chinese Hamster Ovary (CHO)

in vivo = details: male, rat, sc, 70 nmol/kg
[1] = biological target: T5, human Kv1.3 voltage-gated K+ channel (Homo sapiens, UniProt P22001); assay: cell-based; details: inhibition of thallium flux, CHO-DUKX cells with human Kv1.3; read-out: IC50
T5 construct: host or cells: CHO-DUKX

Rat whole blood = Rat whole blood (Rattus norvegicus, UniProt P15384)
[2] = system: delayed-type hypersensitivity (DTH) ear swelling response; type: in vivo, rat; details: Kv1.3 blocker 100 nmol/kg SC 24 hrs prior to KLH challenge, CsA 10 mg/kg per os

T3 sequence (P17658 whole entry): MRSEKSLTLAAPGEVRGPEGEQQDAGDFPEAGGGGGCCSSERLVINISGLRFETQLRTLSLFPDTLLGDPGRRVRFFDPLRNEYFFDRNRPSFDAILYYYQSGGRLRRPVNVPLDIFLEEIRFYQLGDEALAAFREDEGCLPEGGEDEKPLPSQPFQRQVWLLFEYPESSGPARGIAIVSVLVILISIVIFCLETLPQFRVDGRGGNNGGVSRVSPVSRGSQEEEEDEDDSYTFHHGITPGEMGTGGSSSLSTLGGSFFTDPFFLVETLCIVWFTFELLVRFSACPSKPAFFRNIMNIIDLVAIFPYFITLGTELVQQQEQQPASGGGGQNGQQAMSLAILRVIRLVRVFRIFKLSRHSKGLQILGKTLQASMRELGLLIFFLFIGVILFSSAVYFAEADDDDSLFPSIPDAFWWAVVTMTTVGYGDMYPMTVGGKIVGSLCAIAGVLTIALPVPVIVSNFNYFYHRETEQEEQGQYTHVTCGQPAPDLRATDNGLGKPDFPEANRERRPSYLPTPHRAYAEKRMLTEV
T4 sequence (P16389 whole entry): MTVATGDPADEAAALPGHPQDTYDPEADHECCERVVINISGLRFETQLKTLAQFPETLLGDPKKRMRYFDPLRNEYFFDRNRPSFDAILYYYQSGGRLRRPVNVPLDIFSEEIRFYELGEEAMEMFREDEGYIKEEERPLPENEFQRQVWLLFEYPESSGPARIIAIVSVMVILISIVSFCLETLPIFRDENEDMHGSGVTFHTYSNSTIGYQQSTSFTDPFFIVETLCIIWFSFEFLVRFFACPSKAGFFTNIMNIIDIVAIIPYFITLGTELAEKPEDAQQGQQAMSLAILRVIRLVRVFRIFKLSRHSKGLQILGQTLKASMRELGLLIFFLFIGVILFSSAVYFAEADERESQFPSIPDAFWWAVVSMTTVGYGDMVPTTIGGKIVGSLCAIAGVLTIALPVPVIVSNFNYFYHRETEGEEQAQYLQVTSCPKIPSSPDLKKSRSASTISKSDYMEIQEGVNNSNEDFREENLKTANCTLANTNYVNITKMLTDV
T1 sequence (P22001 whole entry): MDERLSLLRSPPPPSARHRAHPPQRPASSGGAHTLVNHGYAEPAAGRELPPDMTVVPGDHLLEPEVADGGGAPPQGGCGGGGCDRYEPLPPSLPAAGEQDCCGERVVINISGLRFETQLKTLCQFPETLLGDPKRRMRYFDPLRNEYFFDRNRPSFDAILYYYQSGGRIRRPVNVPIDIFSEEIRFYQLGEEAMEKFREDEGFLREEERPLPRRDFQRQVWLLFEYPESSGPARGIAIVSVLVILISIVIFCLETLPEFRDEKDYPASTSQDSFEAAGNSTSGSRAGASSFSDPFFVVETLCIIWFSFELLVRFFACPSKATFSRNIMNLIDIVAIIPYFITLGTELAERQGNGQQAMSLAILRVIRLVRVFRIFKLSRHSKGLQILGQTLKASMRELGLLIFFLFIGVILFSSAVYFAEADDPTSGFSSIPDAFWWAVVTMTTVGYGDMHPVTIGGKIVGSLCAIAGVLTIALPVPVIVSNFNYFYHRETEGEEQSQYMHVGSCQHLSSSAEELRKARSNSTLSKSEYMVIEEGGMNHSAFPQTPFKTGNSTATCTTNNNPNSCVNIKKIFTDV
T5 sequence (P22001 whole entry): as above
T2 sequence (Q09470 whole entry): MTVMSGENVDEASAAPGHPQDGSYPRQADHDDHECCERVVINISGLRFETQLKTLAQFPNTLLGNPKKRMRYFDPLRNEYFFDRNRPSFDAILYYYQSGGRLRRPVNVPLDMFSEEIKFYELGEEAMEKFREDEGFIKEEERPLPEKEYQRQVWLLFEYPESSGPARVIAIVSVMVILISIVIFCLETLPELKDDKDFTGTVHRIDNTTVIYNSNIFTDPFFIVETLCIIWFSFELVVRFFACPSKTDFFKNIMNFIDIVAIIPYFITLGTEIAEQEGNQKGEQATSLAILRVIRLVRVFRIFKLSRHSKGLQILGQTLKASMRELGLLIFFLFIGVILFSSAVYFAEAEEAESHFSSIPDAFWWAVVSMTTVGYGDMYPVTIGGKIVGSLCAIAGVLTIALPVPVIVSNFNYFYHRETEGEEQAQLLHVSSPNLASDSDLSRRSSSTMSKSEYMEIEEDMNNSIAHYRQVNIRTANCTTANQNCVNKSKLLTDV
Chain of Rat whole blood (P15384 whole entry): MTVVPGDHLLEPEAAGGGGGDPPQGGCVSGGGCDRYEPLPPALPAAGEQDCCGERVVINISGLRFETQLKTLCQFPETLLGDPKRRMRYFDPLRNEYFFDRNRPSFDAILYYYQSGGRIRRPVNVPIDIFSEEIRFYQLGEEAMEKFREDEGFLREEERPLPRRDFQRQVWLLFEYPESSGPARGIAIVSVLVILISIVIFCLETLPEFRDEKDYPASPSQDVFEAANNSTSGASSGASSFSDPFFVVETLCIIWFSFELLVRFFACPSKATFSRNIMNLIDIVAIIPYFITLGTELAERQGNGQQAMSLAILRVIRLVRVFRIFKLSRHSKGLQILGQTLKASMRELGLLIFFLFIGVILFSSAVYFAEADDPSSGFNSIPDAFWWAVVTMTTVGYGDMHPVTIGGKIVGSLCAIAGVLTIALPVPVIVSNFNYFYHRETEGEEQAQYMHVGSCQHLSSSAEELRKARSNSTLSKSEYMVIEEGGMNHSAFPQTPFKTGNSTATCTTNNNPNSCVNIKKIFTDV

CC[C@H](C)[C@@H]1NC(=O)[C@H](C)NC(=O)[C@H](CCCCN)NC(=O)[C@H](CC(C)C)NC(=O)[C@@H]2CSSC[C@@H](C(=O)N[C@@H](Cc3ccc(O)cc3)C(=O)N3CCC[C@H]3C(=O)N[C@@H](CCCNC(=N)N)C(=O)O)NC(=O)[C@H](CCCCN)NC(=O)[C@@H]3CSSC[C@H](NC(=O)[C@H](CCC(=O)O)NC(=O)[C@H](C(C)C)NC(=O)[C@H](CO)NC(=O)[C@H](C)NC(=O)[C@H](CO)NC(=O)[C@@H](NC(=O)[C@H](CCCNC(=N)N)NC(=O)[C@H](CCSC)NC(=O)[C@H](CC(=O)O)NC(=O)[C@@H](NC(=O)[C@@H](N)CC(N)=O)[C@@H](C)CC)CSSC[C@H](NC(=O)[C@H](CCCCN)NC(=O)CNC(=O)[C@H](Cc4ccccc4)NC(=O)[C@H]([C@@H](C)CC)NC(=O)[C@H](CO)NC(=O)CNC1=O)C(=O)N[C@@H](CCSC)C(=O)N[C@@H](CC(N)=O)C(=O)N[C@@H](CCCCN)C(=O)N[C@@H](CCCCN)C(=O)N3)C(=O)N[C@@H](CCCCN)C(=O)N[C@@H](CCC(N)=O)C(=O)N[C@@H](CCCCN)C(=O)N2 [Compound 8] (H-NIDMRCSASVECKQKCLKAIGSIFGKCMNKKCKCYPR-OH; disulfide 6-27, 12-32, 16-34)
IC50 (Kv1.3): 0.44 nM | IC50 (Kv1.1): > 3000 nM | Selectivity Kv1.1/Kv1.3 (Kv1.1): >6800 | IC50 (Kv1.6): > 3000 nM | Selectivity Kv1.6/Kv1.3 (Kv1.6): >6800 | IC50 (Kv1.2): 376 nM | AUC(0-inf) (in vivo): 98.3 nM·h | Cmax (in vivo): 0.0769 µM | half-life (in vivo): 37.2 min | IC50 [1]: 0.47 nM

CC[C@H](C)[C@@H]1NC(=O)[C@H](C)NC(=O)[C@H](CCCCN)NC(=O)[C@H](CC(C)C)NC(=O)[C@@H]2CSSC[C@@H](C(=O)N[C@@H](Cc3ccc(O)cc3)C(=O)N3CCC[C@H]3C(=O)N[C@@H](CCCNC(=N)N)C(N)=O)NC(=O)[C@H](CCCCN)NC(=O)[C@@H]3CSSC[C@H](NC(=O)[C@H](CCC(=O)O)NC(=O)[C@H](C(C)C)NC(=O)[C@H](CO)NC(=O)[C@H](C)NC(=O)[C@H](CO)NC(=O)[C@@H](NC(=O)[C@H](CCCNC(=N)N)NC(=O)[C@H](CCSC)NC(=O)[C@H](CC(=O)O)NC(=O)[C@H](CCSC)NC(=O)[C@@H](N)CC(N)=O)CSSC[C@H](NC(=O)[C@H](CCCCN)NC(=O)CNC(=O)[C@H](Cc4ccccc4)NC(=O)[C@H]([C@@H](C)CC)NC(=O)[C@H](CO)NC(=O)CNC1=O)C(=O)N[C@@H](CCSC)C(=O)N[C@@H](CC(N)=O)C(=O)N[C@@H](CCCCN)C(=O)N[C@@H](CCCCN)C(=O)N3)C(=O)N[C@@H](C)C(=O)N[C@@H](CCC(N)=O)C(=O)N[C@@H](CCCCN)C(=O)N2 [Compound 30] (H-NMDMRCSASVECAQKCLKAIGSIFGKCMNKKCKCYPR-NH2; disulfide 6-27, 12-32, 16-34)
IC50 (Kv1.3): 0.14 nM | IC50 (Rat whole blood): ≤ 1 nM | IC50 (Kv1.1): > 3000 nM | Selectivity Kv1.1/Kv1.3 (Kv1.1): >22000 | IC50 (Kv1.6): > 3000 nM | Selectivity Kv1.6/Kv1.3 (Kv1.6): >22000 | IC50 (Kv1.2): 666 nM | AUC(0-inf) (in vivo): 46.7 nM·h | Cmax (in vivo): 0.0333 µM | half-life (in vivo): 44.4 min | IC50 [1]: 0.09 nM

CC[C@H](C)[C@@H]1NC(=O)[C@H](C)NC(=O)[C@H](C)NC(=O)[C@H](CC(C)C)NC(=O)[C@@H]2CSSC[C@@H](C(=O)N[C@@H](Cc3ccc(O)cc3)C(=O)N3CCC[C@H]3C(=O)N[C@@H](CCCNC(=N)N)C(N)=O)NC(=O)[C@H](CCCCN)NC(=O)[C@@H]3CSSC[C@H](NC(=O)[C@H](CCC(=O)O)NC(=O)[C@H](C(C)C)NC(=O)[C@H](CO)NC(=O)[C@H](C)NC(=O)[C@H](CO)NC(=O)[C@@H](NC(=O)[C@H](CCCNC(=N)N)NC(=O)[C@H](CCSC)NC(=O)[C@H](CC(=O)O)NC(=O)[C@H](CCSC)NC(=O)[C@@H](N)CC(N)=O)CSSC[C@H](NC(=O)[C@H](CCCCN)NC(=O)CNC(=O)[C@H](Cc4ccccc4)NC(=O)[C@H]([C@@H](C)CC)NC(=O)[C@H](CO)NC(=O)CNC1=O)C(=O)N[C@@H](CCSC)C(=O)N[C@@H](CC(N)=O)C(=O)N[C@@H](CCCCN)C(=O)N[C@@H](CCCCN)C(=O)N3)C(=O)N[C@@H](CCCCN)C(=O)N[C@@H](CCC(N)=O)C(=O)N[C@@H](CCCCN)C(=O)N2 [Compound 52] (H-NMDMRCSASVECKQKCLAAIGSIFGKCMNKKCKCYPR-NH2; disulfide 6-27, 12-32, 16-34)
IC50 (Kv1.3): 0.11 nM | % inhibition of ear thickness (AUC of Δ ear thickness 0-48 hours) ([2]; Exp #4, +/- SD): 25.1% | IC50 (Rat whole blood): ≤ 1 nM | IC50 (Kv1.1): > 3000 nM | Selectivity Kv1.1/Kv1.3 (Kv1.1): >27500 | IC50 (Kv1.6): > 3000 nM | Selectivity Kv1.6/Kv1.3 (Kv1.6): >27500 | IC50 (Kv1.2): 88 nM | AUC(0-inf) (in vivo): 48.5 nM·h | Cmax (in vivo): 0.0312 µM | half-life (in vivo): 53.4 min | IC50 [1]: 0.11 nM

CC[C@H](C)[C@@H]1NC(=O)[C@H](C)NC(=O)[C@H](Cc2ccc(O)cc2)NC(=O)[C@H](CC(C)C)NC(=O)[C@@H]2CSSC[C@@H](C(=O)N[C@@H](Cc3ccc(O)cc3)C(=O)N3CCC[C@H]3C(=O)N[C@@H](CCCNC(=N)N)C(N)=O)NC(=O)[C@H](CCCCN)NC(=O)[C@@H]3CSSC[C@H](NC(=O)[C@H](CCC(=O)O)NC(=O)[C@H](C(C)C)NC(=O)[C@H](CO)NC(=O)[C@H](C)NC(=O)[C@H](CO)NC(=O)[C@@H](NC(=O)[C@H](CCCNC(=N)N)NC(=O)[C@H](CCSC)NC(=O)[C@H](CC(=O)O)NC(=O)[C@H](CCSC)NC(=O)[C@@H](N)CC(N)=O)CSSC[C@H](NC(=O)[C@H](CCCCN)NC(=O)CNC(=O)[C@H](Cc4ccccc4)NC(=O)[C@H]([C@@H](C)CC)NC(=O)[C@H](CO)NC(=O)CNC1=O)C(=O)N[C@@H](CCSC)C(=O)N[C@@H](CC(N)=O)C(=O)N[C@@H](CCCCN)C(=O)N[C@@H](CCCCN)C(=O)N3)C(=O)N[C@@H](CCCCN)C(=O)N[C@@H](CCC(N)=O)C(=O)N[C@@H](CCCCN)C(=O)N2 [Compound 53] (H-NMDMRCSASVECKQKCLYAIGSIFGKCMNKKCKCYPR-NH2; disulfide 6-27, 12-32, 16-34)
IC50 (Kv1.3): 0.29 nM | IC50 (Kv1.1): > 3000 nM | Selectivity Kv1.1/Kv1.3 (Kv1.1): >10300 | IC50 (Kv1.6): > 3000 nM | Selectivity Kv1.6/Kv1.3 (Kv1.6): >10300 | IC50 (Kv1.2): 149 nM | AUC(0-inf) (in vivo): 31.1 nM·h | Cmax (in vivo): 0.05 µM | half-life (in vivo): 52.2 min | IC50 [1]: 0.12 nM

CCCC[C@@H]1NC(=O)[C@@H]2CSSC[C@H](NC(=O)[C@H](CCCNC(=N)N)NC(=O)[C@H](CCCC)NC(=O)[C@H](CC(=O)O)NC(=O)[C@@H](NC(=O)[C@@H](N)CC(N)=O)[C@@H](C)CC)C(=O)N[C@@H](CO)C(=O)N[C@@H](C)C(=O)N[C@@H](CO)C(=O)N[C@@H](C(C)C)C(=O)N[C@@H](CCC(=O)O)C(=O)N[C@H]3CSSC[C@H](NC(=O)[C@H](CCCCN)NC(=O)[C@H](CCCCN)NC(=O)[C@H](CC(N)=O)NC1=O)C(=O)N[C@@H](CCCCN)C(=O)N[C@H](C(=O)N[C@@H](Cc1ccc(O)cc1)C(=O)N1CCC[C@H]1C(=O)N[C@@H](CCCNC(=N)N)C(=O)O)CSSC[C@H](NC(=O)[C@H](CCCCN)NC(=O)[C@H](CCC(N)=O)NC(=O)[C@H](CCCCN)NC3=O)C(=O)N[C@@H](CC(C)C)C(=O)N[C@@H](CCCCN)C(=O)N[C@@H](C)C(=O)N[C@@H]([C@@H](C)CC)C(=O)NCC(=O)N[C@@H](CO)C(=O)N[C@@H]([C@@H](C)CC)C(=O)N[C@@H](Cc1ccccc1)C(=O)NCC(=O)N[C@@H](CCCCN)C(=O)N2 [Compound 95] (H-NID[Nle]RCSASVECKQKCLKAIGSIFGKC[Nle]NKKCKCYPR-OH; disulfide 6-27, 12-32, 16-34)
IC50 (Kv1.3): 0.27 nM | % inhibition of ear thickness (AUC of Δ ear thickness 0-48 hours) ([2]; Exp #5): 39.6% | IC50 (Kv1.1): > 3000 nM | Selectivity Kv1.1/Kv1.3 (Kv1.1): >11300 | IC50 (Kv1.6): > 3000 nM | Selectivity Kv1.6/Kv1.3 (Kv1.6): >11300 | IC50 (Kv1.2): 2060 nM | AUC(0-inf) (in vivo): 85 nM·h | Cmax (in vivo): 0.0465 µM | half-life (in vivo): 65.4 min | IC50 [1]: 0.16 nM

CCCC[C@H](NC(=O)[C@@H]1CCCN1)C(=O)N[C@@H](CCC(=O)O)C(=O)N[C@@H](CCCC)C(=O)N[C@@H](CCCNC(=N)N)C(=O)N[C@H]1CSSC[C@@H]2NC(=O)[C@H](CCCCN)NC(=O)CNC(=O)[C@H](Cc3ccccc3)NC(=O)[C@H]([C@@H](C)CC)NC(=O)[C@H](CO)NC(=O)CNC(=O)[C@H]([C@@H](C)CC)NC(=O)[C@H](C)NC(=O)[C@H](C)NC(=O)[C@H](CC(C)C)NC(=O)[C@@H]3CSSC[C@@H](C(=O)N[C@@H](Cc4ccc(O)cc4)C(=O)N4CCC[C@H]4C(=O)N[C@@H](CCCNC(=N)N)C(=O)O)NC(=O)[C@H](CCCCN)NC(=O)[C@H](CSSC[C@H](NC(=O)[C@H](CCC(=O)O)NC(=O)[C@H](C(C)C)NC(=O)[C@H](CO)NC(=O)[C@H](C)NC(=O)[C@H](CO)NC1=O)C(=O)N[C@@H](C)C(=O)N[C@@H](CCC(N)=O)C(=O)N[C@@H](CCCCN)C(=O)N3)NC(=O)[C@H](CCCCN)NC(=O)[C@H](CCCCN)NC(=O)[C@H](CC(N)=O)NC(=O)[C@H](CCCC)NC2=O [Compound 103] (H-P[Nle]E[Nle]RCSASVECAQKCLAAIGSIFGKC[Nle]NKKCKCYPR-OH; disulfide 6-27, 12-32, 16-34)
IC50 (Kv1.3): 0.55 nM | % inhibition of ear thickness (AUC of Δ ear thickness 0-48 hours) ([2]; Exp #7): 48.9% | IC50 (Kv1.1): > 3000 nM | Selectivity Kv1.1/Kv1.3 (Kv1.1): >5500 | IC50 (Kv1.6): > 3000 nM | Selectivity Kv1.6/Kv1.3 (Kv1.6): >5500 | IC50 (Kv1.2): > 3000 nM | AUC(0-inf) (in vivo): 177 nM·h | Cmax (in vivo): 0.0684 µM | half-life (in vivo): 81.6 min | IC50 [1]: 0.38 nM
